Measured values as given in PMC9940851, “Seleno Containing Compounds as Potent and Selective Antifungal Agents” (ACS Infectious Diseases, 2022).
Values after ≈ are worked out from the molar mass of the structure shown.

Columns and labels:
MgCA = target: T1, MgCA (Malassezia globosa, UniProt A8Q1N3); test: stopped-flow CO2 hydrase assay; format: biochemical
T1 construct: gene MGL_1814
T1 sequence (A8Q1N3 1-241): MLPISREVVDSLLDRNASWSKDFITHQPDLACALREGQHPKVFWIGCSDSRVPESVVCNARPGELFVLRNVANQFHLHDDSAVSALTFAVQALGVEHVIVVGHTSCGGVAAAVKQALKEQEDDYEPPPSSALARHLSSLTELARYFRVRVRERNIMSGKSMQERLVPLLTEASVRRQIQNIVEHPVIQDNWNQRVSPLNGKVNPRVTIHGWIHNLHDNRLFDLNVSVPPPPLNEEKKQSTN
In short: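 Stopped-flow recording over 10–100 s followed CO2 hydration (1.7–17 mM CO2) in 20 mM Hepes pH 7.4 plus 20 mM Na2SO4, using 0.2 mM phenol red at 557 nm, after recombinant carbonic anhydrase (5–12 nM) had been preincubated with inhibitor for 15 min at room temperature. Initial rates, corrected for uncatalysed rates, came from at least six traces, and at least three determinations were averaged. Ki was calculated by nonlinear least-squares fitting with the Cheng-Prusoff equation.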

MpaCA = target: T2, MpaCA (Malassezia pachydermatis, UniProt A0A0M8MPA4); test: stopped-flow CO2 hydrase assay; format: biochemical
T2 construct: gene Malapachy_3798
T2 sequence (A0A0M8MPA4 1-242): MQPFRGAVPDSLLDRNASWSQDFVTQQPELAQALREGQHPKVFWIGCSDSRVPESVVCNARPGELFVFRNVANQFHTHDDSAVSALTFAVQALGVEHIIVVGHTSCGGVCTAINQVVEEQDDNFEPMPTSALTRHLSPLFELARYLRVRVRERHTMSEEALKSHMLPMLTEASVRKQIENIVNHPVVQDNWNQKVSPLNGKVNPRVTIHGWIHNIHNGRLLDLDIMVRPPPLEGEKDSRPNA

M. globosa ATCC MYA 4612 = tested on: T3, M. globosa ATCC MYA 4612; test: microbe, parasite or virus in culture; settings: Malassezia globosa
T3 construct: ATCC MYA 4612
Protocol: (§1) Inoculum preparations for antifungal assays were performed following the CLSI guidelines for antifungal susceptibility testing of yeasts.[31] Antifungal activity was evaluated on unicellular yeasts Candida albicans ATCC 10231, Candida glabrata ATCC 90030 (DSMZ 11226), Malassezia pachydermatis CDC 16334 (DSMZ 6172), Malassezia globosa ATCC MYA 4612, and Malassezia furfur ATCC 14521. All the fungal strains were stored at −80 °C in cryovials. Then Candida spp. and Malassezia pachydermatis were reactivated in RPMI 1640 broth for 24–48 h at 35 °C. The so obtained fresh cultures were streaked onto Sabouraud dextrose agar and incubated for 24–48 h at 35 °C. Malassezia globosa and furfur were reactivated in modified RPMI 1640 broth[32] for 24–48 h at 35 °C (M. furfur) and 33 °C (M. globosa), and then the cultures were streaked onto Leeming and Notman agar (MLNA) and incubated for 48–72 h at 35 °C for M. furfur and at 33 °C for M. globosa. The fungal inoculum for the testing was prepared by suspending in phosphate buffer (PB) 10 mM pH 7 4–5 colonies of about 1 mm diameter. The fungal suspension was then adjusted to a final optical density of 0.5 McFarland standard (1–5 × 10^6 cells/mL). The compound solutions were tested in a range of concentrations from 0.01 μg/mL to 256 μg/mL, and 50 μL were then added in 96 wells microtiter plates with 50 μL of fungal inoculum and incubated for 24–48 h at 35 °C. Growth and sterility controls were performed. […] Compounds 3a, 3c, 5b, 7a–d, 9c, 11e, 11i, and 14a,b were selected as representatives of the chemical moieties synthesized prior to their screen on yeasts of biomedical relevance such as M. pachydermatis DSMZ 6172, C. albicans ATCC 10231, and C. glabrata ATCC 90030 (DSMZ 11226) strains. The clinical used drugs Ketoconazole, SeS2, and Amphotericin B were included as references (Table 1).

ATCC M. furfur 14521 = tested on: T4, ATCC M. furfur 14521; test: microbe, parasite or virus in culture; settings: Malassezia furfur
T4 construct: ATCC 14521
Protocol: as §1

[1] = tested on: T5, M. pachydermatis DSMZ 6172; test: microbe, parasite or virus in culture; parameters: broth microdilution MIC, M. pachydermatis and Candida, 35 °C; settings: Malassezia pachydermatis, DSMZ6172
T5 construct: DSMZ 6172 (CDC 16334)
Protocol: as §1

NS(=O)(=O)c1ccc(NC(=[Se])Nc2ccc(F)cc2)cc1 [3b]
Ki (MgCA): 648 nM | Ki (MpaCA): 965 nM

NS(=O)(=O)c1ccc(NC(=[Se])Nc2cccc(C(F)(F)F)c2)cc1 [3d]
Ki (MgCA): 803 nM | MIC (M. globosa ATCC MYA 4612): > 256 µg/mL | MIC (ATCC M. furfur 14521): 213 ± 73.9 µg/mL (≈ 505 µM) | Ki (MpaCA): 617 nM | MIC [1]: 6 ± 3.46 µg/mL (≈ 14.2 µM)

NS(=O)(=O)c1ccc(NC(=[Se])Nc2ccccc2Cl)cc1 [3e]
Ki (MgCA): 655 nM | MIC (M. globosa ATCC MYA 4612): 256 µg/mL (≈ 659 µM) | MIC (ATCC M. furfur 14521): 5.3 ± 2.31 µg/mL (≈ 13.6 µM) | Ki (MpaCA): 693 nM | MIC [1]: 1 ± 0.87 µg/mL (≈ 2.57 µM)

NS(=O)(=O)c1cccc(NC(=[Se])Nc2ccccc2)c1 [4a]
Ki (MgCA): 783 nM | MIC (M. globosa ATCC MYA 4612): 256 µg/mL (≈ 723 µM) | MIC (ATCC M. furfur 14521): 107 ± 37 µg/mL (≈ 301 µM) | Ki (MpaCA): 283 nM | MIC [1]: 4 µg/mL (≈ 11.3 µM)

NS(=O)(=O)c1cccc(NC(=[Se])Nc2ccc(F)cc2)c1 [4b]
Ki (MgCA): 700 nM | Ki (MpaCA): 342 nM

NS(=O)(=O)c1ccc(CCNC(=[Se])Nc2ccccc2)cc1 [5a]
Ki (MgCA): 655 nM | Ki (MpaCA): 793 nM

NS(=O)(=O)c1ccc(CCNC(=[Se])Nc2cccc(C(F)(F)F)c2)cc1 [5c]
Ki (MgCA): 701 nM | Ki (MpaCA): 992 nM

NS(=O)(=O)c1ccc(CCNC(=[Se])Nc2ccc(Br)cc2)cc1 [5d]
Ki (MgCA): 683 nM | Ki (MpaCA): 369 nM

NS(=O)(=O)c1ccc(CCNC(=[Se])Nc2ccccc2Cl)cc1 [5e]
Ki (MgCA): 812 nM | MIC (M. globosa ATCC MYA 4612): 256 µg/mL (≈ 614 µM) | MIC (ATCC M. furfur 14521): 2.3 ± 1.53 µg/mL (≈ 5.52 µM) | Ki (MpaCA): 518 nM | MIC [1]: 0.5 µg/mL (≈ 1.2 µM)

COc1ccccc1NC(=[Se])NCCc1ccc(S(N)(=O)=O)cc1 [5f]
Ki (MgCA): 411 nM | MIC (M. globosa ATCC MYA 4612): 256 µg/mL (≈ 621 µM) | MIC (ATCC M. furfur 14521): 1.3 ± 0.58 µg/mL (≈ 3.15 µM) | Ki (MpaCA): 525 nM | MIC [1]: 0.5 µg/mL (≈ 1.21 µM)

NS(=O)(=O)c1ccc(CCNC(=[Se])Nc2ccc(I)cc2)cc1 [5g]
Ki (MgCA): 689 nM | MIC (M. globosa ATCC MYA 4612): 85.3 ± 37 µg/mL (≈ 168 µM) | MIC (ATCC M. furfur 14521): 1.7 ± 0.58 µg/mL (≈ 3.34 µM) | Ki (MpaCA): 531 nM | MIC [1]: 1 µg/mL (≈ 1.97 µM)

NS(=O)(=O)c1ccc(CCNC(=[Se])Nc2ccc3ccccc3c2)cc1 [5h]
Ki (MgCA): 562 nM | MIC (M. globosa ATCC MYA 4612): 64 µg/mL (≈ 148 µM) | MIC (ATCC M. furfur 14521): 1.7 ± 0.58 µg/mL (≈ 3.93 µM) | Ki (MpaCA): 260 nM | MIC [1]: 0.5 µg/mL (≈ 1.16 µM)

CCCCCCCc1ccc(C(=O)NC(=[Se])Nc2ccc(S(N)(=O)=O)cc2)cc1 [7e]
Ki (MgCA): 5880 nM | MIC (M. globosa ATCC MYA 4612): > 256 µg/mL | MIC (ATCC M. furfur 14521): 10.7 ± 4.62 µg/mL (≈ 22.3 µM) | Ki (MpaCA): 78200 nM | MIC [1]: 0.5 µg/mL (≈ 1.04 µM)

NS(=O)(=O)c1ccc(NC(=[Se])NC(=O)c2ccc([N+](=O)[O-])cc2)cc1 [7f, 4-Nitro-N-((4-sulfamoylphenyl)carbamoselenoyl)benzamide]
Ki (MgCA): 9010 nM | MIC (M. globosa ATCC MYA 4612): 64 µg/mL (≈ 150 µM) | MIC (ATCC M. furfur 14521): 42.7 ± 18.5 µg/mL (≈ 99.9 µM) | Ki (MpaCA): 85400 nM | MIC [1]: 2.2 ± 1.75 µg/mL (≈ 5.15 µM)

NS(=O)(=O)c1ccc(NC(=[Se])NC(=O)c2ccc(I)cc2)cc1 [7g, 4-Iodo-N-((4-sulfamoylphenyl)carbamoselenoyl)benzamide]
Ki (MgCA): 3110 nM | MIC (M. globosa ATCC MYA 4612): 256 µg/mL (≈ 504 µM) | MIC (ATCC M. furfur 14521): 6 ± 3.46 µg/mL (≈ 11.8 µM) | Ki (MpaCA): 76100 nM | MIC [1]: 0.5 µg/mL (≈ 0.984 µM)
